Tests used:
Pseudomonas aeruginosa [1] = test: Antibacterial activity against Pseudomonas aeruginosa ATCC 27853 assessed as reduction in bacterial growth at 10 uM in presence of 100 J/cm2 light irradiation by photosensitization assay; format: functional
Acinetobacter baumannii [2] = test: Antibacterial activity against Acinetobacter baumannii ATCC 17978 assessed as reduction in bacterial growth at 2 uM in presence of 22.5 J/cm2 light irradiation by photosensitization assay; format: functional
Acinetobacter baumannii [3] = test: Antibacterial activity against Acinetobacter baumannii ATCC 17978 assessed as reduction in bacterial growth at 10 uM in presence of 22.5 J/cm2 light irradiation by photosensitization assay; format: functional
Staphylococcus aureus [4] = test: Antibacterial activity against methicillin-resistant Staphylococcus aureus ATCC 33591 assessed as reduction in bacterial growth at 8 uM in presence of 30 J/cm2 light irradiation by photosensitization assay; format: functional
Staphylococcus aureus [5] = test: Antibacterial activity against Staphylococcus aureus ATCC 29213 assessed as reduction in bacterial growth at 0.25 uM in presence of 8 J/cm2 light irradiation by photosensitization assay; format: functional
Staphylococcus aureus [6] = test: Antibacterial activity against methicillin-resistant Staphylococcus aureus ATCC 33591 assessed as reduction in bacterial growth at 1 uM in presence of 8 J/cm2 light irradiation by photosensitization assay; format: functional
Escherichia coli [7] = test: Antibacterial activity against Escherichia coli assessed as reduction in bacterial growth at 8 uM in presence of 30 J/cm2 light irradiation by photosensitization assay; format: functional
Staphylococcus aureus [8] = test: Antibacterial activity against Staphylococcus aureus ATCC 29213 assessed as reduction in bacterial growth at 8 uM in presence of 30 J/cm2 light irradiation by photosensitization assay; format: functional
Pseudomonas aeruginosa [9] = test: Antibacterial activity against Pseudomonas aeruginosa ATCC 27853 assessed as reduction in bacterial growth at 10 to 20 ug/ml in presence of 18 J/cm2 light irradiation by photosensitization assay; format: functional; conditions: dose 10-20 µg/ml
Pseudomonas aeruginosa [10] = test: Antibacterial activity against Pseudomonas aeruginosa ATCC 27853 assessed as reduction in bacterial growth at 400 uM in presence of 72 J/cm2 light irradiation by photosensitization assay; format: functional
Staphylococcus aureus [11] = test: Antibacterial activity against Staphylococcus aureus MCC 2408 assessed as reduction in bacterial growth at 16 uM in presence of 54 J/cm2 light irradiation by photosensitization assay; format: functional
Staphylococcus aureus [12] = test: Antibacterial activity against Staphylococcus aureus MCC 2408 assessed as reduction in bacterial growth at 50 ug/ml in presence of 58.49 J/cm2 light irradiation by photosensitization assay; format: functional; conditions: dose 50 µg/ml
Staphylococcus aureus [13] = test: Antibacterial activity against Staphylococcus aureus […] assessed as reduction in bacterial growth at 64 ug/ml in presence of 18 J/cm2 light irradiation by photosensitization assay; format: functional; conditions: dose 64 µg/ml
Enterococcus faecalis [14] = test: Antibacterial activity against Enterococcus faecalis assessed as reduction in bacterial growth at 16 uM in presence of 54 J/cm2 light irradiation by photosensitization assay; format: functional
Staphylococcus aureus [15] = test: Antibacterial activity against Staphylococcus aureus MCC 2408 assessed as reduction in bacterial growth at 400 uM in presence of 72 J/cm2 light irradiation by photosensitization assay; format: functional
Pseudomonas aeruginosa [16] = test: Antibacterial activity against Pseudomonas aeruginosa ATCC 27853 assessed as reduction in bacterial growth at 7000 ug/ml in presence of 18 J/cm2 light irradiation by photosensitization assay; format: functional; conditions: dose 7000 µg/ml
Staphylococcus aureus [17] = test: Antibacterial activity against Staphylococcus aureus MCC 2408 assessed as reduction in bacterial growth at 0.62 ug/ml in presence of 18 J/cm2 light irradiation by photosensitization assay; format: functional; conditions: dose 0.62 µg/ml
Pseudomonas aeruginosa [18] = test: Antibacterial activity against Pseudomonas aeruginosa ATCC 27853 assessed as reduction in bacterial growth at 16 uM in presence of 54 J/cm2 light irradiation by photosensitization assay; format: functional
Enterococcus faecalis [19] = test: Antibacterial activity against Staphylococcus aureus ATCC 29212 assessed as reduction in bacterial growth at 14 uM in presence of 25 J/cm2 light irradiation by photosensitization assay; format: functional
Staphylococcus aureus [20] = test: Antibacterial activity against Staphylococcus aureus ATCC 29213 assessed as reduction in bacterial growth at 5 uM in presence of 18 J/cm2 light irradiation by photosensitization assay; format: functional
Acinetobacter baumannii [21] = test: Antibacterial activity against Acinetobacter baumannii ATCC 17978 assessed as reduction in bacterial growth at 20 uM in presence of 6 J/cm2 light irradiation by photosensitization assay; format: functional
Staphylococcus aureus [22] = test: Antibacterial activity against methicillin-resistant Staphylococcus aureus ATCC 33591 assessed as reduction in bacterial growth at 20 uM in presence of 6 J/cm2 light irradiation by photosensitization assay; format: functional
Escherichia coli [23] = test: Antibacterial activity against Escherichia coli K12 assessed as reduction in bacterial growth at 20 uM in presence of 6 J/cm2 light irradiation by photosensitization assay; format: functional
Staphylococcus aureus [24] = test: Antibacterial activity against Staphylococcus aureus ATCC 25923 assessed as reduction in bacterial growth at 20 uM in presence of 100 J/cm2 light irradiation by photosensitization assay; format: functional
Escherichia coli [25] = test: Antibacterial activity against Escherichia coli ATCC 25922 assessed as reduction in bacterial growth at 20 uM in presence of 100 J/cm2 light irradiation by photosensitization assay; format: functional
Escherichia coli [26] = test: Antibacterial activity against Escherichia coli assessed as reduction in bacterial growth at 100 uM in presence of 100 J/cm2 light irradiation by photosensitization assay; format: functional
Staphylococcus aureus [27] = test: Antibacterial activity against Staphylococcus aureus assessed as reduction in bacterial growth at 200 ug/ml in presence of 180 J/cm2 light irradiation by photosensitization assay; format: functional; conditions: dose 200 µg/ml
Staphylococcus aureus [28] = test: Antibacterial activity against Staphylococcus aureus assessed as reduction in bacterial growth at 20 uM in presence of 80 J/cm2 light irradiation by photosensitization assay; format: functional
Acinetobacter baumannii [29] = test: Antibacterial activity against Acinetobacter baumannii ATCC BAA 747 assessed as reduction in bacterial growth at 2 uM in presence of 22.5 J/cm2 light irradiation by photosensitization assay; format: functional
Staphylococcus aureus [30] = test: Antibacterial activity against Staphylococcus aureus ATCC 25923 assessed as reduction in bacterial growth at 50 ug/ml in presence of 58.49 J/cm2 light irradiation by photosensitization assay; format: functional; conditions: dose 50 µg/ml
Pseudomonas aeruginosa [31] = test: Antibacterial activity against Pseudomonas aeruginosa ATCC 27853 assessed as reduction in bacterial growth at 50 ug/ml in presence of 58.4 J/cm2 light irradiation by photosensitization assay; format: functional; conditions: dose 50 µg/ml
Escherichia coli [32] = test: Antibacterial activity against Escherichia coli ATCC 25922 assessed as reduction in bacterial growth in presence of 6 J/cm2 light irradiation by photosensitization assay; format: functional
Klebsiella aerogenes = test: Antibacterial activity against Klebsiella aerogenes assessed as reduction in bacterial growth at 16 uM in presence of 54 J/cm2 light irradiation by photosensitization assay; format: functional
Staphylococcus aureus [33] = test: Antibacterial activity against Staphylococcus aureus ATCC 25923 assessed as reduction in bacterial growth in presence of 6 J/cm2 light irradiation by photosensitization assay; format: functional
Pseudomonas aeruginosa [34] = test: Antibacterial activity against Pseudomonas aeruginosa ATCC 27853 assessed as reduction in bacterial growth at 50 ug/ml in presence of 97.65 J/cm2 light irradiation by photosensitization assay; format: functional; conditions: dose 50 µg/ml
Staphylococcus aureus [35] = test: Antibacterial activity against Staphylococcus aureus ATCC 25923 assessed as reduction in bacterial growth at 5 ug/ml in presence of 97.65 J/cm2 light irradiation by photosensitization assay; format: functional; conditions: dose 5 µg/ml
Bacillus subtilis = test: Antibacterial activity against Bacillus subtilis assessed as reduction in bacterial growth at 2 uM in presence of 22.5 J/cm2 light irradiation by photosensitization assay; format: functional
Escherichia coli [36] = test: Antibacterial activity against Escherichia coli assessed as reduction in bacterial growth at 20 uM in presence of 80 J/cm2 light irradiation by photosensitization assay; format: functional, organism-based
Staphylococcus aureus [37] = test: Antibacterial activity against Staphylococcus aureus ATCC 29213 assessed as reduction in bacterial growth at 300 ug/ml in presence of 12 J/cm2 light irradiation by photosensitization assay; format: functional; conditions: dose 300 µg/ml
Pseudomonas aeruginosa [38] = test: Antibacterial activity against Pseudomonas aeruginosa ATCC 27853 assessed as reduction in bacterial growth at 60 ug/ml in presence of 100 J/cm2 light irradiation by photosensitization assay; format: functional; conditions: dose 60 µg/ml

CCNc1cc2[s+]c3cc(NCC)c(C)cc3nc2cc1C.[Cl-]
log(activity) (Pseudomonas aeruginosa [1]): 3
log(activity) (Acinetobacter baumannii [2]): 6
log(activity) (Acinetobacter baumannii [3]): 3

Cc1cc(O)c2c(=O)c3c(O)cc(O)c4c5c(O)cc(O)c6c(=O)c7c(O)cc(C)c8c1c2c(c34)c(c78)c65 [HYPERICIN]
log(activity) (Staphylococcus aureus [4]): >0.6
log(activity) (Staphylococcus aureus [5]): >6
log(activity) (Staphylococcus aureus [6]): >0.6
log(activity) (Escherichia coli [7]): 0.06
log(activity) (Staphylococcus aureus [8]): >6

CN(C)c1ccc2nc3ccc(N(C)C)cc3[s+]c2c1.[Cl-] [METHYLENE BLUE ANHYDROUS]
log(activity) (Pseudomonas aeruginosa [9]): 6
log(activity) (Pseudomonas aeruginosa [10]): 4.1
log(activity) (Staphylococcus aureus [11]): 5
log(activity) (Staphylococcus aureus [12]): 2.38
log(activity) (Staphylococcus aureus [13]): 6
log(activity) (Enterococcus faecalis [14]): 0.7
log(activity) (Staphylococcus aureus [15]): 7.3
log(activity) (Pseudomonas aeruginosa [16]): 6
log(activity) (Staphylococcus aureus [17]): 6
log(activity) (Pseudomonas aeruginosa [18]): 1.1

COc1cc(/C=C/C(=O)CC(=O)/C=C/c2ccc(O)c(OC)c2)ccc1O [CURCUMIN]
log(activity) (Enterococcus faecalis [19]): 10
log(activity) (Staphylococcus aureus [20]): 7

CN(CCN(C)c1ccc2nc3ccc(N(C)C)cc3[s+]c2c1)C(=O)c1ccc(-c2cc3cc([N+](=O)[O-])ccc3[nH]2)cc1.Cl
log(activity) (Acinetobacter baumannii [21]): 4
log(activity) (Staphylococcus aureus [22]): 6
log(activity) (Escherichia coli [23]): 6

CN(CCCOc1ccccc1NC(=O)Nc1ccc2ccccc2c1)CCN(C)c1ccc2nc3ccc(N(C)C)cc3[s+]c2c1.[Cl-]
log(activity) (Acinetobacter baumannii [21]): 3
log(activity) (Staphylococcus aureus [22]): 4
log(activity) (Escherichia coli [23]): 3

C1=Cc2nc1c(-c1ccccc1)c1ccc([nH]1)c(-c1ccccc1)c1nc(c(-c3ccccc3)c3ccc([nH]3)c2-c2ccccc2)C=C1
log(activity) (Staphylococcus aureus [24]): 5
log(activity) (Escherichia coli [25]): 3

CC1=C(CCC(=O)O)c2cc3[nH]c(cc4nc(cc5[nH]c(cc1n2)c(C)c5C(C)O)C(C)=C4C(C)O)c(C)c3CCC(=O)O (stereo not drawn) [HEMATOPORPHYRIN]
log(activity) (Escherichia coli [26]): <6
log(activity) (Staphylococcus aureus [27]): >6

C[n+]1ccc(-c2c3nc(c(-c4cc[n+](C)cc4)c4ccc([nH]4)c(-c4cc[n+](C)cc4)c4ccc([nH]4)c(-c4cc[n+](C)cc4)c4nc2C=C4)C=C3)cc1 [TMPYP4]
log(activity) (Staphylococcus aureus [24]): 7
log(activity) (Staphylococcus aureus [28]): 7
log(activity) (Escherichia coli [25]): 7

CN(CCN(C)c1ccc2nc3ccc(N(C)C)cc3[s+]c2c1)Cc1ccc(-c2cc3cc([N+](=O)[O-])ccc3[nH]2)cc1.Cl
log(activity) (Acinetobacter baumannii [21]): 5
log(activity) (Staphylococcus aureus [22]): 3
log(activity) (Escherichia coli [23]): 4

Cc1cc2nc3ccc(N(C)C)cc3[s+]c2cc1N.[Cl-] [TOLONIUM CHLORIDE]
log(activity) (Acinetobacter baumannii [29]): 3
log(activity) (Staphylococcus aureus [30]): 2.21
log(activity) (Pseudomonas aeruginosa [31]): 2.2
log(activity) (Escherichia coli [32]): 0.08
log(activity) (Klebsiella aerogenes): >8
log(activity) (Staphylococcus aureus [33]): 5.83
log(activity) (Pseudomonas aeruginosa [34]): 2.36
log(activity) (Staphylococcus aureus [35]): 2.66
log(activity) (Bacillus subtilis): >6

CN(C)c1ccc2nc3ccc(N4CCN(CCCOc5ccccc5NC(=O)Nc5ccc6ccccc6c5)CC4)cc3[s+]c2c1.[Cl-]
log(activity) (Staphylococcus aureus [22]): 3
log(activity) (Escherichia coli [23]): 3

C[n+]1cccc(-c2c3nc(c(-c4ccc[n+](C)c4)c4ccc([nH]4)c(-c4ccc[n+](C)c4)c4nc(c(-c5ccc[n+](C)c5)c5ccc2[nH]5)C=C4)C=C3)c1
log(activity) (Escherichia coli [26]): 6
log(activity) (Escherichia coli [36]): 7

Cc1cc(N(C)C)cc2[s+]c3cc(N(C)C)cc(C)c3nc12.[Cl-]
log(activity) (Staphylococcus aureus [37]): 99%

O=S(=O)(O)c1ccc(-c2c3nc(c(-c4ccc(S(=O)(=O)O)cc4)c4ccc([nH]4)c(-c4ccc(S(=O)(=O)O)cc4)c4nc(c(-c5ccc(S(=O)(=O)O)cc5)c5ccc2[nH]5)C=C4)C=C3)cc1
log(activity) (Staphylococcus aureus [24]): 7
log(activity) (Escherichia coli [25]): 7

O=[N+]([O-])c1ccc(-c2c3nc(c(-c4ccc([N+](=O)[O-])cc4)c4ccc([nH]4)c(-c4ccc([N+](=O)[O-])cc4)c4nc(c(-c5ccc([N+](=O)[O-])cc5)c5ccc2[nH]5)C=C4)C=C3)cc1
log(activity) (Pseudomonas aeruginosa [38]): 2

— ChEMBL document CHEMBL6109045, “Photosensitizer associated with efflux pump inhibitors as a strategy for photodynamic therapy against bacterial resistance” (2025)
